# Laboratory results from ChEMBL document CHEMBL5661943, “ASAP - In vitro antiviral effect” (2024).
# Where “and” joins values, the source holds several entries; their conditions need not be identical. Identical values can stand only once.
# Experiments:
# [1] = test system: dengue virus type 2; test: Functional assay to measure dose dependent changes in antiviral-drug inhibitory efficacy against Dengue virus type 2 New Guinea C in Vero E6 miRFP670 cells. Cells are treated with antiviral candidates that are serially diluted, following infection, cells are fixed. EC50 is reported via analysis of fluorescence intensity using high-content imager. The assay has been performed by KU Leuven.; assay type: organism-based, Chlorocebus sabaeus
# [2] = test system: Zika virus; test: (§1) Functional CPE-based assay to measure dose dependent changes in antiviral-drug inhibitory efficacy against Zika virus MR766 in Vero E6 miRFP670 cells. Cells are treated with antiviral candidates that are serially diluted. EC50 is reported via analysis of MTS assay as a readout of CPE. The assay has been performed by KU Leuven.; assay type: organism-based, Chlorocebus sabaeus, Vero C1008
# [3] = test system: dengue virus type 2; test: (§2) Functional immunofluorescence assay to measure dose dependent changes in antiviral-drug inhibitory efficacy against Dengue virus type 2 Thailand/16681/84 in Vero E6/TMPRSS2 cells (cotreated with P-gp inhibitor, Elacridar). Cells are treated with antiviral candidates that are serially diluted, following infection, cells are fixed. EC50 is reported via analysis of immunofluorescence staining. The assay has been performed by Icahn School of Medicine at Mount Sinai.; assay type: organism-based, Chlorocebus sabaeus, VeroE6/TMPRSS2
# [4] = test system: Zika virus; test: as §1, with “cells (cotreated with P-gp inhibitor, CP100356).” for “cells.”; assay type: organism-based, Chlorocebus sabaeus, Vero C1008; conditions: for EC90: Baseline response 0 %, Maximum response 100 %, P-gp inhibitor CP100356
# [5] = test system: dengue virus type 2; test: Functional assay to measure dose dependent changes in antiviral-drug inhibitory efficacy against Dengue virus type 2 New Guinea C in Vero E6 miRFP670 cells (cotreated with P-gp inhibitor, CP100356). Cells are treated with antiviral candidates that are serially diluted, following infection, cells are fixed. EC50 is reported via analysis of fluorescence intensity using high-content imager. The …; assay type: organism-based, Chlorocebus sabaeus, Vero C1008
# [6] = test system: Zika virus; test: EC50 is reported via analysis of immunofluorescence staining. The assay has been performed by Icahn School of Medicine at Mount Sinai.; assay type: functional, organism-based, Chlorocebus sabaeus, VeroE6/TMPRSS2
# [7] = test system: dengue virus type 2; test: as §2, with “cells.” for “cells (cotreated with P-gp inhibitor, Elacridar).”; assay type: organism-based, Chlorocebus sabaeus; conditions: for EC50: VeroE6/TMPRSS2; for EC90: VeroE6/TMPRSS2, Baseline response 0 %, Maximum response 100 %
# [8] = test system: dengue virus type 2; test: as §1, with “Dengue” for “Zika”, “type 2 New Guinea C” for “MR766”, “Huh7” for “Vero E6 miRFP670”, “MTT/MTS” for “MTS”, “National Institute of Allergy and Infectious Diseases.” for “KU Leuven.”; assay type: organism-based, Homo sapiens; conditions: Huh-7
# [9] = test system: Zika virus; test: as §2, with “Zika” for “Dengue”, “PRVABC59” for “type 2 Thailand/16681/84”, “cells.” for “cells (cotreated with P-gp inhibitor, Elacridar).”; assay type: organism-based, Chlorocebus sabaeus; conditions: for EC50: VeroE6/TMPRSS2
# [10] = test system: Middle East respiratory syndrome-related coronavirus; test: microbe, parasite or virus in culture; assay type: functional, organism-based, Chlorocebus sabaeus; conditions: VeroE6/TMPRSS2
smiles,measurement,setting,value
O=C(Nc1ccc2c(c1)CNC2)c1cc(Cl)cc2[nH]ncc12,EC50,[1]; Vero C1008,> 50 µM
same,EC90,"[1]; Vero C1008, Baseline response 0 %, Hill slope -0.996, Maximum measured 1.395 %, Maximum response 100 %, Minimum measured -3.373 %, R squared 0.016",> 50 µM
same,EC90,"[2]; Zika virus, Vero C1008, Baseline response 0 %, Hill slope 1.599, Maximum measured 39.692 %, Maximum response 100 %, Minimum measured -0.234 %, R squared 0.961",> 50 µM
same,EC90,"[2]; Zika virus, Vero C1008, Baseline response 0 %, Hill slope 4.496, Maximum measured 86.5 %, Maximum response 100 %, Minimum measured 2.921 %, R squared 0.876",> 50 µM
same,EC90,"[2]; Zika virus, Vero C1008, Baseline response 0 %, EC90 CI (lower) 23.876 uM, EC90 CI (upper) 46.036 uM, Hill slope 2.096, Maximum measured 107.811 %, Maximum response 100 %, Minimum measured 2.258 %, R squared 0.969",33.1 µM
same,EC50,[2]; vero c1008,34 µM and > 50 µM and 11.6 µM
same,EC50,"[3]; Dengue virus, VeroE6/TMPRSS2",> 50 µM
same,EC90,"[3]; Dengue virus, VeroE6/TMPRSS2, Maximum measured 202.528 %, Minimum measured 74.934 %, P-gp concentration 2 uM, P-gp inhibitor Elacidar",> 50 µM
same,EC90,"[4]; EC90 CI (lower) 3.61 uM, EC90 CI (upper) 15.25 uM, Hill slope 2.511, Maximum measured 126.79 %, Minimum measured 6.324 %, P-gp concentration 500 nM, R squared 0.896",7.42 µM
same,EC50,"[4]; Zika virus, Vero C1008",4.57 µM
same,EC90,"[4]; Zika virus, Vero C1008, EC90 CI (lower) 7.143 uM, EC90 CI (upper) 23.592 uM, Hill slope 2.106, Maximum measured 121.753 %, Minimum measured 3.066 %, P-gp concentration 100 nM, R squared 0.93",13 µM
same,EC50,[4]; vero c1008,3.09 µM
same,EC50,"[5]; Dengue virus, Vero C1008",> 50 µM
same,EC90,"[5]; Dengue virus, Vero C1008, Maximum measured 2.237 %, Minimum measured -2.116 %, P-gp concentration 100 nM, P-gp inhibitor CP100356",> 50 µM
same,EC90,"[5]; Dengue virus, Vero C1008, Maximum measured 108.122 %, Minimum measured 103.322 %, P-gp concentration 500 nM, P-gp inhibitor CP100356",> 50 µM
same,EC90,"[5]; Dengue virus, Vero C1008, Maximum measured 122.049 %, Minimum measured 106.43 %, P-gp concentration 500 nM, P-gp inhibitor CP100356",> 50 µM
same,EC50,"[6]; Zika virus, VeroE6/TMPRSS2",12.7 µM
same,EC90,"[6]; Zika virus, VeroE6/TMPRSS2, Baseline response 0 %, Hill slope -1.535, Maximum measured 150.297 %, Maximum response 100 %, Minimum measured 39.396 %, P-gp concentration 2 uM, R squared 0.523, P-gp inhibitor Elacidar",> 16.7 µM
CC(C)CNC(=O)c1cc(Cl)c(F)cc1NS(=O)(=O)c1ccc(Oc2ccccc2Cl)cc1,EC50,[7],0.193 µM
same,EC90,"[7]; Hill slope -0.469, Maximum measured 101.396 %, Minimum measured 33.359 %, R squared 0.321",> 1.85 µM
same,EC50,"[2]; Zika virus, Vero C1008",> 50 µM
same,EC90,"[2]; Zika virus, Vero C1008, Baseline response 0 %, Hill slope -1.049, Maximum measured 4.723 %, Maximum response 100 %, Minimum measured -5.364 %, R squared 0.235",> 50 µM
same,EC90,"[2]; Zika virus, Vero C1008, Maximum measured 0.142 %, Minimum measured -3.427 %",> 50 µM
same,EC90,"[2]; Zika virus, Vero C1008, Maximum measured 0.689 %, Minimum measured -11.388 %",> 50 µM
same,EC50,[8],> 3.1 µM
same,EC90,"[3]; Dengue virus, VeroE6/TMPRSS2",1.89 µM
same,EC90,"[3]; Dengue virus, VeroE6/TMPRSS2, Maximum measured 155.684 %, Minimum measured 125.095 %, P-gp concentration 2 uM, P-gp inhibitor Elacidar",> 5.56 µM
same,EC90,"[5]; Baseline response 0 %, Hill slope -36.406, Maximum measured 110.21 %, Maximum response 100 %, Minimum measured 0.136 %, P-gp concentration 500 nM, R squared 0.986, P-gp inhibitor CP100356",5.99 µM
same,EC50,"[5]; Dengue virus, Vero C1008",5.32 µM
same,EC90,"[5]; Dengue virus, Vero C1008",5.85 µM
same,EC50,[5]; vero c1008,5.64 µM
same,EC90,"[6]; Baseline response 0 %, Hill slope -1.279, Maximum measured 136.576 %, Maximum response 60 %, Minimum measured 13.183 %, P-gp concentration 2 uM, R squared 0.138, P-gp inhibitor Elacidar",> 50 µM
same,EC90,"[6]; Baseline response 0 %, Hill slope -13.406, Maximum measured 146.245 %, Maximum response 100 %, Minimum measured 54.335 %, P-gp concentration 2 uM, R squared 0.12, P-gp inhibitor Elacidar",> 16.7 µM
same,EC50,"[6]; Zika virus, VeroE6/TMPRSS2",> 16.7 µM
same,EC50,[6]; veroe6/tmprss2,27.9 µM
same,EC50,[9],> 50 µM
same,EC90,"[9]; VeroE6/TMPRSS2, Maximum measured 624.218 %, Minimum measured 63.552 %",> 50 µM
CC(C)CNC(=O)c1cc(Cl)ccc1NS(=O)(=O)c1ccc(Oc2ccccc2Cl)cc1,EC50,[7],0.569 µM
same,EC90,"[7]; Hill slope -0.624, Maximum measured 99.166 %, Minimum measured 12.707 %, R squared 0.743",> 16.7 µM
same,EC50,"[2]; Zika virus, Vero C1008",> 50 µM
same,EC90,"[2]; Zika virus, Vero C1008, Maximum measured -0.388 %, Minimum measured -2.415 %",> 50 µM
same,EC50,[8],> 6.5 µM
same,EC90,"[3]; Baseline response 0 %, EC90 CI (lower) 0.741 uM, EC90 CI (upper) 4.671 uM, Hill slope -3.39, Maximum measured 117.923 %, Maximum response 100 %, Minimum measured 16.6 %, P-gp concentration 2 uM, R squared 0.718, P-gp inhibitor Elacidar",6.8 µM
same,EC90,"[3]; Baseline response 0 %, EC90 CI (lower) […] uM, EC90 CI (upper) 0.019 uM, Hill slope -1.255, Maximum measured 118.581 %, Maximum response 100 %, Minimum measured 5.952 %, P-gp concentration 2 uM, R squared 0.745, P-gp inhibitor Elacidar",0.18 µM
same,EC90,"[3]; Dengue virus, VeroE6/TMPRSS2, Maximum measured 165.458 %, Minimum measured 88.019 %, P-gp concentration 2 uM, P-gp inhibitor Elacidar",> 16.7 µM
same,EC50,"[5]; Dengue virus, Vero C1008",5.64 µM
same,EC90,"[5]; Dengue virus, Vero C1008, Baseline response 0 %, Hill slope -37.142, Maximum measured 110.023 %, Maximum response 100 %, Minimum measured 0.325 %, P-gp concentration 500 nM, R squared 0.985, P-gp inhibitor CP100356",5.99 µM
same,EC90,"[6]; Baseline response 0 %, EC90 CI (lower) 6.158 uM, EC90 CI (upper) 70.47 uM, Hill slope -6.578, Maximum measured 126.059 %, Maximum response 100 %, Minimum measured 2.779 %, P-gp concentration 2 uM, R squared 0.75, P-gp inhibitor Elacidar",40.6 µM
same,EC90,"[6]; Zika virus, VeroE6/TMPRSS2",32.4 µM
same,EC90,"[6]; Zika virus, VeroE6/TMPRSS2, Maximum measured 119.408 %, Minimum measured 55.418 %, P-gp concentration 2 uM, P-gp inhibitor Elacidar",> 3.33 µM
same,EC50,[6]; veroe6/tmprss2,> 3.33 µM and 19.2 µM and 29.1 µM
same,EC50,[9],4.4 µM
same,EC90,"[9]; VeroE6/TMPRSS2, Baseline response 0 %, Hill slope -0.566, Maximum measured 86.366 %, Maximum response 100 %, Minimum measured 3.533 %, R squared 0.722",> 50 µM
C=CC[C@H](Nc1cccc(-c2nn[nH]n2)c1)c1cc(Cl)cc2[nH]ncc12,EC50,[10],0.988 µM
same,EC90,[10],2.78 µM
